Drawing on ChEMBL document CHEMBL4613226, “Drug Metabolism by the Mitochondrial Amidoxime Reducing Component (mARC): Rapid Assay and Identification of New Substrates” (J Med Chem, 2020), this text covers Activity for 16 compounds.

Common to all, as to assay type: ADME
Data set [1] has as its target T1, Mitochondrial amidoxime reducing component 2 (Homo sapiens, UniProt Q969Z3).
T1 sequence (Q969Z3 whole entry): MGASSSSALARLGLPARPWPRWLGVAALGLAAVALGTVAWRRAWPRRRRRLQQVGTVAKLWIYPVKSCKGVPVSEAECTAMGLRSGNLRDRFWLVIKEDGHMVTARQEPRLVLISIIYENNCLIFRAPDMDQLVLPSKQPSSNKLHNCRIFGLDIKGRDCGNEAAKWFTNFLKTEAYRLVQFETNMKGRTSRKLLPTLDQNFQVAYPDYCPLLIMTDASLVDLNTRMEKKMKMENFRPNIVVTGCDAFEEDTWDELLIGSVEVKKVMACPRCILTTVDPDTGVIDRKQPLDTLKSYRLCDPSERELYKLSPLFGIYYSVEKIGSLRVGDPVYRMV
As to the kind of experiment: Substrate activity at human mARC2 expressed in Escherichia coli assessed as turnover rates at 3 mM pre-incubated for 3 mins followed by NADH addition and measured after 15 mins by LC-MS analysis based assay. To be noted: 0.25 h, 3000 µM.

In data set [2] the target is T2, Mitochondrial amidoxime-reducing component 1 (Homo sapiens, UniProt Q5VT66).
T2 sequence (Q5VT66 whole entry): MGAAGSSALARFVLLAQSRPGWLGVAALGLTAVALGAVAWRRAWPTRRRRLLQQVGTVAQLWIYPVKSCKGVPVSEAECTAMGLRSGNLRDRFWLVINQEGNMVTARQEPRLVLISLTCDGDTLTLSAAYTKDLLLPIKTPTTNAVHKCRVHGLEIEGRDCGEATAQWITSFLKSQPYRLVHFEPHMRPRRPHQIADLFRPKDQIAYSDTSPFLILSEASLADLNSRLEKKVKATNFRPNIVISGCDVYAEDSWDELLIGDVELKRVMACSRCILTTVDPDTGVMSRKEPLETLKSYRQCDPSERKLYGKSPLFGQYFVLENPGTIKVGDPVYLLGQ
The data set can be described thus: Substrate activity at human mARC1 expressed in Escherichia coli assessed as turnover rates at 3 mM pre-incubated for 3 mins followed by NADH addition and measured after 15 mins by LC-MS analysis based assay. To be noted: 0.25 h, 3000 µM.

Data set [3] has as its target T2, Mitochondrial amidoxime-reducing component 1. The data set can be described thus: Substrate activity at human mARC1 expressed in Escherichia coli assessed as turnover rates at 3 mM pre-incubated for 3 mins followed by NADH addition and measured after 15 mins by UV-Visible spectroscopy based NADH assay. To be noted: 0.25 h, 3000 µM.
The target of data set [4] is T1, Mitochondrial amidoxime reducing component 2. The data set can be described thus: Substrate activity at human mARC2 expressed in Escherichia coli assessed as turnover rates at 3 mM pre-incubated for 3 mins followed by NADH addition and measured after 15 mins by UV-Visible spectroscopy based NADH assay. To be noted: 0.25 h, 3000 µM.
Data set [5] concerns the target T2, Mitochondrial amidoxime-reducing component 1. As to the kind of experiment: Substrate activity at human mARC1 expressed in Escherichia coli assessed as turnover rates at 1 mM pre-incubated for 3 mins followed by NADH addition and measured after 15 mins by LC-MS analysis based assay. Particulars: 0.25 h, 1000 µM.
For data set [6], the target named is T1, Mitochondrial amidoxime reducing component 2. As to the kind of experiment: Substrate activity at human mARC2 expressed in Escherichia coli assessed as turnover rates at 1 mM pre-incubated for 3 mins followed by NADH addition and measured after 15 mins by UV-Visible spectroscopy based NADH assay. To be noted: 0.25 h, 1000 µM.
The target is the same in data set [7]. The data set can be described thus: Substrate activity at human mARC2 expressed in Escherichia coli assessed as turnover rates at 1 mM pre-incubated for 3 mins followed by NADH addition and measured after 15 mins by LC-MS analysis based assay. Particulars: 0.25 h, 1000 µM.
Data set [8] concerns the target T2, Mitochondrial amidoxime-reducing component 1. As to the kind of experiment: Substrate activity at human mARC1 expressed in Escherichia coli assessed as turnover rates at 1 mM pre-incubated for 3 mins followed by NADH addition and measured after 15 mins by UV-Visible spectroscopy based NADH assay. Particulars: 0.25 h, 1000 µM.
Data set [9] shares this target. As to the kind of experiment: Substrate activity at human mARC1 expressed in Escherichia coli assessed as turnover rates at 200 uM pre-incubated for 3 mins followed by NADH addition and measured after 15 mins by LC-MS analysis based assay. Particulars: 0.25 h.
Data set [10] has as its target T1, Mitochondrial amidoxime reducing component 2. As to the kind of experiment: Substrate activity at human mARC2 expressed in Escherichia coli assessed as turnover rates at 200 uM pre-incubated for 3 mins followed by NADH addition and measured after 15 mins by UV-Visible spectroscopy based NADH assay. Particulars: 0.25 h.
Data set [11] shares this target. The data set can be described thus: Substrate activity at human mARC2 expressed in Escherichia coli assessed as turnover rates at 200 uM pre-incubated for 3 mins followed by NADH addition and measured after 15 mins by LC-MS analysis based assay. To be noted: 0.25 h.
The target in data set [12] is T2, Mitochondrial amidoxime-reducing component 1. The data set can be described thus: Substrate activity at human mARC1 expressed in Escherichia coli assessed as turnover rates at 200 uM pre-incubated for 3 mins followed by NADH addition and measured after 15 mins by UV-Visible spectroscopy based NADH assay. Particulars: 0.25 h.
For data set [13], the target named is T1, Mitochondrial amidoxime reducing component 2. As to the kind of experiment: Substrate activity at human mARC2 expressed in Escherichia coli assessed as turnover rates at 500 uM pre-incubated for 3 mins followed by NADH addition and measured after 15 mins by LC-MS analysis based assay. To be noted: 0.25 h.
In data set [14] the target is T2, Mitochondrial amidoxime-reducing component 1. As to the kind of experiment: Substrate activity at human mARC1 expressed in Escherichia coli assessed as turnover rates at 500 uM pre-incubated for 3 mins followed by NADH addition and measured after 15 mins by UV-Visible spectroscopy based NADH assay. To be noted: 0.25 h.
For data set [15], the target named is T1, Mitochondrial amidoxime reducing component 2. As to the kind of experiment: Substrate activity at human mARC2 expressed in Escherichia coli assessed as turnover rates at 500 uM pre-incubated for 3 mins followed by NADH addition and measured after 15 mins by UV-Visible spectroscopy based NADH assay. Particulars: 0.25 h.
In data set [16] the target is T2, Mitochondrial amidoxime-reducing component 1. As to the kind of experiment: Substrate activity at human mARC1 expressed in Escherichia coli assessed as turnover rates at 500 uM pre-incubated for 3 mins followed by NADH addition and measured after 15 mins by LC-MS analysis based assay. Particulars: 0.25 h.

For `CN(CCCC(=O)c1cccnc1)N=O`, the Activity result in data set [1] (BLD = below limit of detection), in data set [2] (BLD = below limit of detection), in data set [3] (BLD = below limit of detection) and in data set [4] (BLD = below limit of detection) was “Bld” throughout.
Turning to `OC[C@H]1O[C@@H](n2cnc3c(NO)ncnc32)[C@H](O)[C@@H]1O`, the Activity in [5] is 954.5 nmol/mg/min; in data set [6], 271.6 nmol/mg/min; in data set [7] it was 291 nmol/mg/min; in [8], 845.7 nmol/mg/min.
As to `NC(=O)c1ccc[n+]([O-])c1`, the Activity entry was “Bld” in [1] (BLD = below limit of detection), 239.3 nmol/mg/min in [2], 209.9 nmol/mg/min in data set [3] and “Bld” in data set [4] (BLD = below limit of detection).
Regarding `C=C1C(=O)O[C@@H]2CC[N+]3([O-])CC=C(COC(=O)[C@](C)(O)[C@H](C)[C@H]1C)[C@H]23` (stereo not given in full), the Activity in [5] is 17.6 nmol/mg/min; in data set [6] (BLD = below limit of detection) it was “Bld”; in data set [7] (BLD = below limit of detection), “Bld”; in data set [8] it was 12.7 nmol/mg/min.
In the case of `C[N+](C)([O-])CCC=C1c2ccccc2CCc2ccccc21` [AMITRIPTYLINOXIDE], the Activity result in [1] (BLD = below limit of detection) was “Bld”; in data set [2], 3.1 nmol/mg/min; in data set [3] it was 9.5 nmol/mg/min; in data set [4] (BLD = below limit of detection), “Bld”.
Consider `NC(=NO)c1ccccc1` [BENZAMIDOXIME], for which the Activity turned out to be 373.9 nmol/mg/min in [1], 549.6 nmol/mg/min in [2], 499.8 nmol/mg/min in data set [3] and 394.3 nmol/mg/min in data set [4].
In the case of `NS(=O)(=O)NCCNc1nonc1C(=NO)Nc1ccc(F)c(Br)c1` [EPACADOSTAT], the Activity was determined as 4.1 nmol/mg/min in data set [9], 24.3 nmol/mg/min in [10], 17.9 nmol/mg/min in data set [11] and 10.4 nmol/mg/min in [12].
Turning to `O=CN(O)CCCP(=O)([O-])O.[Na+]` [FOSMIDOMYCIN SODIUM], the Activity was 7.2 nmol/mg/min in [3] and 27.8 nmol/mg/min in [4].
For the compound `N=C(NO)N/N=C/c1c(Cl)cccc1Cl` [GUANOXABENZ], the Activity was found to be 967.5 nmol/mg/min in data set [13], 951.2 nmol/mg/min in [14], 947.1 nmol/mg/min in data set [15] and 988 nmol/mg/min in data set [16].
As to `NC(=O)NO` [HYDROXYUREA], the Activity is 471.5 nmol/mg/min in data set [3] and 34.4 nmol/mg/min in data set [4].
On to `Cc1oncc1C(=O)Nc1ccc(C(F)(F)F)cc1` [LEFLUNOMIDE], for which the Activity entry in [13] (BLD = below limit of detection), in [14] (BLD = below limit of detection), in [15] (BLD = below limit of detection) and in data set [16] (BLD = below limit of detection) was “Bld” throughout.
Consider `O=c1nc(NO)ccn1[C@@H]1O[C@H](CO)[C@@H](O)[C@H]1O` [N-HYDROXYCYTIDINE], for which the Activity in data set [1] worked out at 184.2 nmol/mg/min; in data set [2], 354.8 nmol/mg/min; in data set [3], 354.7 nmol/mg/min; in data set [4], 142.1 nmol/mg/min.
For `Cc1cn([C@H]2C[C@H](N=[N+]=[N-])[C@@H](CO)O2)c(=O)[nH]c1=O` [ZIDOVUDINE], the Activity result in [1] (BLD = below limit of detection), in data set [2] (BLD = below limit of detection), in data set [3] (BLD = below limit of detection) and in data set [4] (BLD = below limit of detection) was “Bld” in each case.
Regarding `CC(c1cc2ccccc2s1)N(O)C(N)=O` (stereo not given) [ZILEUTON], the Activity turned out to be 2.3 nmol/mg/min in data set [5], 8.3 nmol/mg/min in data set [6], 0.9 nmol/mg/min in data set [7] and 6.1 nmol/mg/min in [8].
With `O=C1Cc2cc(CCN3CCN(c4nsc5ccccc45)CC3)c(Cl)cc2N1` [ZIPRASIDONE], the Activity entry in [9] (BLD = below limit of detection), in data set [10] (BLD = below limit of detection), in data set [11] (BLD = below limit of detection) and in [12] (BLD = below limit of detection) was “Bld” in each case.
As to `NS(=O)(=O)Cc1noc2ccccc12` [ZONISAMIDE], the Activity result in data set [5] (BLD = below limit of detection), in data set [6] (BLD = below limit of detection), in [7] (BLD = below limit of detection) and in data set [8] (BLD = below limit of detection) was “Bld” each time.
